Data as given in US20220280543A1, “DDX17 AND NLRC4 TARGETING FOR INFLAMMATORY DISEASES” (University of Virginia Patent Foundation, priority 2019, published 2022).

Tests used:
[1] = target: T1, DDX17 (Homo sapiens, UniProt Q92841); assay: DDX17 translocation in THP-1 cells, cell fractionation and immunoblot; assay type: cell-based; details: THP-1, Alu RNA 100 pmol (FIG. 36)
Source text: FIG. 36. Alu RNA (SEQ ID NO: 86) induces DDX17 translocation in human cells. Human monocytes (THP-1) were transfected with Alu RNA (SEQ ID NO: 86 at 100 pmol) using LIPOFECTAMINE™ 3000 brand transfection reagent (Lipo; ThermoFisher Scientific). Cell lysates were collected and subjected to cell fractionation. Immunoblots of DDX17 and Histone H3 were used to evaluate the subcellular distribution of DDX17. […] The bands of DDX17 in cell nucleus and cytoplasm were indicated by black arrows.
Human monocytes (THP-1) were treated with Alu RNA (SEQ ID NO: 86 at 100 pmol). Cell lysates were collected and subjected to cell fractionation. Immunoblots of DDX17 and Histone H3 were used to evaluate the subcellular distribution of DDX17.

[2] = tested on: NLRC4 phosphorylation (site S533); assay: SINE RNA induced NLRC4 phosphorylation (S533) in BMDM, Western blot; assay type: cell-based, mouse; details: SINE RNAs each at 100 pmol, polyI:C 10 μg/ml (FIG. 1)
Description: FIG. 1. SINE RNA induced NLRC4 phosphorylation (site S533) in mice macrophage (BMDM). Mouse bone marrow derived macrophage (BMDM) were treated with SINE RNAs (Alu (SEQ ID NO: 86), B1 (SEQ ID NO: 87), and B2 (SEQ ID NO: 88), each at 100 pmol), and polyI:C (10 μg/ml). Phosphorylated Nlrc4 (p-Nlrc4) and total Nlrc4 (t-Nlrc4) were detected by Western blot. Actin is provided as a loading control. The p-NLRC4 bands were indicated by black arrow.
Previous studies have shown that NLRC4 inflammasome activation in response to Salmonella exposure requires two steps for its activation, phosphorylation on Ser533 residue of NLRC4 and NAIP mediated oligomerization of NLRC4. […] Moreover, treatment with SINE RNAs induced caspase-1 p20 cleavage, indicative of inflammasome activation (FIG. 2). For the subsequent experiments in this study, we used Alu RNA (SEQ ID NO: 86) as the stimulus to activate the NLRC4 inflammasome. To date, two kinases are reported to phosphorylate NLRC4 at S533: protein kinase C delta (PKCδ) and leucine rich repeat-containing kinase-2 (LRRK2). To explore the roles of these kinases in Alu RNA (SEQ ID NO: 86) induced NLRC4 phosphorylation, we pretreated BMDMs with pharmacological inhibitors of LRRK2 (GSK2578215A, GSK) and PKCδ (Rottlerin, Rot) respectively.

[3] = tested on: NLRC4 and NLRP3 complex; assay: Assembly of NLRC4 and NLRP3 complex in human RPE cells, Proximity Ligation Assay; assay type: cell-based; details: biotinylated Alu RNA 100 pmol, PLA (FIG. 37)
Description: FIG. 37. Alu RNA (SEQ ID NO: 86) induces the assembly of NLRC4 and NLRP3 complex. Human RPE cells were transfected with biotinylated Alu RNA (SEQ ID NO: 86 at 100 pmol) by LIPOFECTAMINE™ 3000 brand transfection reagent (Lipo; ThermoFisher Scientific). The assembly of NLRC4 and NLRP3 complex was evaluated by Proximity Ligation Assay (PLA). […] The signal of NLRC4-NLRP3 complexes is indicated by the white arrow.
Human RPE cells were treated with biotinylated Alu RNA (SEQ ID NO: 86 at 100 pmol). The assembly of NLRC4 and NLRP3 complex was evaluated by Proximity Ligation Assay (PLA).

[4] = target: T1, DDX17; assay: CLIP (cross-linking immunoprecipitation) of biotin-Alu RNA and DDX17 in HEK293 cells; assay type: binding; design: Myc; expressed in transfected cells; host or cells: HEK293; details: UV cross-linking, streptavidin pull down (FIG. 8B)
Source text: FIGS. 8A-8C. CLIP (cross-linking immunoprecipitation) on Alu RNA (SEQ ID NO: 86) and Ddx17 interaction. Human HEK293 cell transfected with btn-Alu RNA (SEQ ID NO: 86), cross-linked by ultraviolet light, pull-downed by biotin-streptavidin. The binding of Ddx17 determined by western blot. FIG. 8A. Schematic of CLIP (cross-linking immunoprecipitation) for biotin or myc-tag mediated immunoprecipitation. FIG. 8B. […] WCL is whole cell lysates. The bands of pull downed DDX17 proteins by Alu RNA (SEQ ID NO: 86) were indicated by black arrow. FIG. 8C. The HEK293 cells were transfected with myc-tagged DDX17 and biotin-Alu RNA (SEQ ID NO: 86). Cells were cross-linked and lysates for immunoprecipitation by Anti-myc beads. The total RNA was extracted, and were the Alu RNA (SEQ ID NO: 86) were detected with Northern blot. […] The bands of pull-downed Alu RNA (SEQ ID NO: 86) by myc-DDX17 proteins were indicated by black arrow.
Next, we sought to identify the sensor responsible for Alu RNA (SEQ ID NO: 86) induced NLRC4 inflammasome activation. We employed cross-linking immunoprecipitation (CLIP)-mass spectrometry to reveal protein interaction partners of Alu RNA (SEQ ID NO: 86). […] Immunoprecipitation of the cell lysate with anti-Streptavidin (FIG. 8B) or Myc antibody (FIG. 8C) pulled down biotin-labelled Alu RNA (SEQ ID NO: 86), as detected by northern blotting. […]

T1 sequence (Q92841 whole entry, species assumed): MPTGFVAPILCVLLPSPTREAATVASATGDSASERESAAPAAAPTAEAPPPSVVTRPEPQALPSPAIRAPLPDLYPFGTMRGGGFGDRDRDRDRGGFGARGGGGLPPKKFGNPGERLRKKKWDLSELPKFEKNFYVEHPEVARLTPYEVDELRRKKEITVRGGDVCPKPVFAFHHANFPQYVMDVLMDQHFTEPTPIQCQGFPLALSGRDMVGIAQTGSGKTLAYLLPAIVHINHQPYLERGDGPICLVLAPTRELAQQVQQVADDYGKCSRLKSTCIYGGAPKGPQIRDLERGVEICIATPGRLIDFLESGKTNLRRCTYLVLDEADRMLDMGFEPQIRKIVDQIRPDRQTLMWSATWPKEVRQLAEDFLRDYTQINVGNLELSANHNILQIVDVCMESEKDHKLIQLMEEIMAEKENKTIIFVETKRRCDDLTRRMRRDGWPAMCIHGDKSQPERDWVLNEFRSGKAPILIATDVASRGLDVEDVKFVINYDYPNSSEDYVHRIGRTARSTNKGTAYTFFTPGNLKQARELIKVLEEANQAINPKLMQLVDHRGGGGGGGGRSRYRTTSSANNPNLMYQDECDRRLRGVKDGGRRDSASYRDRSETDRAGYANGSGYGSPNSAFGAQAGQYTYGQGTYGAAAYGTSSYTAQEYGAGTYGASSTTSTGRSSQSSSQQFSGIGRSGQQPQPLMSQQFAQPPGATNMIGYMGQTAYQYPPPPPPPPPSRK

For Alu RNA: human SINE RNA, SEQ ID NO: 86, the “subcellular distribution of DDX17” value [1] was “induced DDX17 translocation from the nucleus to the cytoplasm”, the “NLRC4 phosphorylation on S533 in BMDMs” value [2] was “induced” and the “assembly of NLRC4 and NLRP3 complex” value [3] was “induced the assembly”. For the same substance, the “binding of DDX17 to biotin-Alu RNA” value [4] was “physically binds”.
